Experimental data published in patent publication US11110147B2, “Collagen hydrolysates as a beneficial prebiotic and their effect on joint inflammation and osteoarthritis” (ROUSSELOT B.V., priority 2017, dated 2021).

Test system: gut microbiome
Experiment: Microbial 16S rDNA analysis of fecal samples
Assay type: in vivo, mice
Settings: 38 mg/day hCol1 or glucosamine, FIG. 10C
Protocol: FIGS. 10A-10C: hCol1 supplementation induces significant change in the gut microbiome. Microbial rDNA analysis was performed on fecal samples collected from lean and obese mice supplemented with control Nutella, 38 mg/day hCol1, or glucosamine. […] FIG. 10A: Principal coordinate analysis of microbial abundance from obese control Nutella (1), obese glucosamine (2), obese hCol1 (3), lean hCol1 (4), lean glucosamine (5) and lean control Nutella (6) mice. […] FIGS. 15A-15G: hCol1 and hCol2 supplementation induces significant change in the gut microbiome and provides protective effects in post-traumatic osteoarthritis. (FIG. 15A) Microbial rDNA analysis was performed on fecal samples collected from chow fed mice supplemented with control Nutella, 38 mg/day hCol1, or 15 mg/day hCol2 for 4 weeks. Bars show relative microbial abundance in the indicated groups. Each bar represents an average of 3 mice. In the chow diet, hCol 1 and 2 tended to have similar effects: Increases in the abundance of Bacteroidales, Lactobacillales, Turicibacterales, and Anaeroplasmatales. […] Panels depicting the tibia uncalcified cartilage area (FIG. 15B), the number of chondrocytes in the tibia uncalcified cartilage (FIG. 15C), the number (FIG. 15D) and percentage (FIG. 15E) of Safranin-O positive (SafO^+) chondrocytes in the tibia uncalcified cartilage, the femur uncalcified cartilage area (FIG. 15F), and the number of chondrocytes in the femur uncalcified cartilage (FIG. 15G) in Sham and DMM chow fed mice supplemented with vehicle (Nutella) (Control DMM), hCol1 (P1 DMM) or hCol2 (P2 DMM) at 12 weeks after injury. FIGS. 16A-16E: (FIG. 16A) Microbial rDNA analysis was performed on fecal samples collected from lean fed mice supplemented with control Nutella, 38 mg/day hCol1, or 15 mg/day hCol2. Bars show relative microbial abundance in the indicated groups. […] Panels depicting the tibia cartilage area (FIG. 16B), the tibia uncalcified cartilage area (FIG. 16C), the number of chondrocytes in the tibia uncalcified cartilage (FIG. 16D), and the percentage (FIG. 16E) of Safranin-O positive (SafO^+) chondrocytes in the tibia uncalcified cartilage in Sham and DMM lean fed mice supplemented with vehicle (Nutella) (Control DMM), hCol1 (P1 DMM) or hCol2 (P2 DMM) at 12 weeks after injury. FIG. 17A-17H: (FIG. 17A) Microbial rDNA analysis was performed on fecal samples collected from high fat (HF) (60% of caloric energy from saturated fat) fed mice supplemented with control Nutella, 38 mg/day hCol1, or 15 mg/day hCol2 for 4 weeks. Bars show relative microbial abundance in the indicated groups. […] Panels depicting the tibia cartilage area (FIG. 17B), the tibia uncalcified cartilage area (FIG. 17C), the number of chondrocytes in the tibia uncalcified cartilage (FIG. 17D), the number of Safranin-O positive (SafO^+) chondrocytes in the tibia uncalcified cartilage (FIG. 17E), the femur uncalcified cartilage area (FIG. 17F), the number of chondrocytes in the femur uncalcified cartilage (FIG. 17G), and the number of Safranin-O positive (SafO^+) chondrocytes in the femur uncalcified cartilage (FIG. 17H) in Sham and DMM high fat diet-fed mice supplemented with vehicle (Nutella) (Control DMM), hCol1 (P1 DMM) or hCol2 (P2 DMM) at 3 weeks after injury. FIG. 19: hCol2 alters the gut microbiome. Mice fed chow or high fat diet for 3 months were supplemented daily with hCol2 (HFD+hCol2) or vehicle (Nutella) (HFD) for 4 weeks. Fecal samples were collected and microbial rDNA analysis was performed. A subset of bacterial species was altered in high fat diet-fed mice compared to chow fed mice, and hCol2 supplementation changed the gut microbiome of these high fat diet-fed mice. Numerous proinflammatory species, particularly Peptococcaceae rc4-4 sp, were reduced in hCol2-supplemented mice (top heat map). Conversely, several anti-inflammatory species were enhanced in hCol2-supplemented animals, including Bifidobacterium pseudolongum (bottom heat map). […]

Compound: N[C@H]1C(O)O[C@H](CO)[C@@H](O)[C@@H]1O (some centres unmarked) [glucosamine]
- relative microbial abundance: Actinobacteria (lean mice): 12.07%
- relative microbial abundance: Bacteroidetes (lean mice): 13.4103%
- relative microbial abundance: Firmicutes (lean mice): 72.6939%
- relative microbial abundance: Tenericutes (lean mice): 1.1749%
- relative microbial abundance: Verrucomicrobia (lean mice): 0.0119%
- relative microbial abundance: Actinobacteria (lean mice, listed as Glucosamine): 12.7091%
- relative microbial abundance: Actinobacteria (obese mice): 0.4928%
- relative microbial abundance: Bacteroidetes (obese mice): 11.2335%
- relative microbial abundance: Firmicutes (obese mice): 88.0274%
- relative microbial abundance: Proteobacteria (obese mice): 0.0005%
- relative microbial abundance: Verrucomicrobia (obese mice): 0.2458%
